According to US20070154579A1, “Morinda Citrifolia Based Formulation And Methods For Weight Management” (priority 2005, published 2007):
Entries after “also recorded” stand apart in the source; their conditions may differ. Like-named read-outs stand apart in the source and are kept apart here. Square brackets hold non-standard residues; d marks the D form. Peptide text beside a SMILES is read from it. Nle = CCCC[C@H](N)C(=O)O; βAla = NCCC(=O)O

What was measured:
Bombesin BB1 = Bombesin BB1 (Homo sapiens, UniProt P28336); settings: historical value, Hill coefficient; cited from earlier work
Adrenergic β2 = Adrenergic β2 (Homo sapiens, UniProt P07550); settings: ephedrine, from research studies; cited from earlier work
Adrenergic β1 = Adrenergic β1 (Homo sapiens, UniProt P08588); settings: ephedrine, from research studies; cited from earlier work
Adrenergic β3 = Adrenergic β3 (Homo sapiens, UniProt P13945); settings: ephedrine, from research studies; cited from earlier work
Bombesin BB3 [1] = target: T1, Bombesin BB3 (Homo sapiens, UniProt P32247); test: Bombesin BB3 radioligand binding; settings: batch 147476; read-out: Concurrent IC50 (reference compound)
T1 construct: expressed in transfected cells; host or cells: Balb 3T3 cells
T1 sequence (P32247 1-399): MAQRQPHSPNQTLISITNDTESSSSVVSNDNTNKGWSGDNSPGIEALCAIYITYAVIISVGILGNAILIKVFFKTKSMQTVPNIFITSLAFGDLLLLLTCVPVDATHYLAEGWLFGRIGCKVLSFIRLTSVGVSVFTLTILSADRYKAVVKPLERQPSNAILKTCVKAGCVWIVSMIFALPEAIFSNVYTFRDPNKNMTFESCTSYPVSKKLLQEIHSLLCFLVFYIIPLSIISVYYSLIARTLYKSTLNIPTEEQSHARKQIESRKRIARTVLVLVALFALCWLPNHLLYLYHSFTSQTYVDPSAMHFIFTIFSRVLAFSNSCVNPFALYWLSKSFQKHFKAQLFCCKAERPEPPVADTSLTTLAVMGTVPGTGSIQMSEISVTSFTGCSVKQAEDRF
Description: The effects of juice from Morinda Citrifolia (noni) on metabolic rate were analyzed by analyzing the bombesin response. “TNJ” refers to Morinda citrifolia juice processed according to this invention and commericially available as […] NONI® juice, “Sample #100” is a Noni concentrate and “TNCMP1” refers to Morinda citrifolia evaporative concentrate. The percentage of concentration represents the concentration strength of the particular concentrate tested; that is, the strength of concentration relative to the Morinda citrifolia fruit juice from which the concentrate was obtained.
The following materials and methods were utilized in the Bombesin research.

Bombesin BB3 [2] = target: T1, Bombesin BB3; settings: historical value, cited from earlier work
Somatostatin sst5 = Somatostatin sst5 (Homo sapiens, UniProt P35346); settings: historical value, Hill coefficient; cited from earlier work
Sequence of Somatostatin sst5 (P35346 whole entry): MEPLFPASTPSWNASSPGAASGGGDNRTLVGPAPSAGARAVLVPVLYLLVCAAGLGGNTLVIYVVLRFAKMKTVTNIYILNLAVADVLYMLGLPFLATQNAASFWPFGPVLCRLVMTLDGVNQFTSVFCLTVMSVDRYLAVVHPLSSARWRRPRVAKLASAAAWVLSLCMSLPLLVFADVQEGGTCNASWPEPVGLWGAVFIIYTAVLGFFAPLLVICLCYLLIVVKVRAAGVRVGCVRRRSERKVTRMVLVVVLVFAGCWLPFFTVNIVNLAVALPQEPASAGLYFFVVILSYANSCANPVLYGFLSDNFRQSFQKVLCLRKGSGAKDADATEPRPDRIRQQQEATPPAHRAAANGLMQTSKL

Sequence of Adrenergic β2 (P07550 whole entry): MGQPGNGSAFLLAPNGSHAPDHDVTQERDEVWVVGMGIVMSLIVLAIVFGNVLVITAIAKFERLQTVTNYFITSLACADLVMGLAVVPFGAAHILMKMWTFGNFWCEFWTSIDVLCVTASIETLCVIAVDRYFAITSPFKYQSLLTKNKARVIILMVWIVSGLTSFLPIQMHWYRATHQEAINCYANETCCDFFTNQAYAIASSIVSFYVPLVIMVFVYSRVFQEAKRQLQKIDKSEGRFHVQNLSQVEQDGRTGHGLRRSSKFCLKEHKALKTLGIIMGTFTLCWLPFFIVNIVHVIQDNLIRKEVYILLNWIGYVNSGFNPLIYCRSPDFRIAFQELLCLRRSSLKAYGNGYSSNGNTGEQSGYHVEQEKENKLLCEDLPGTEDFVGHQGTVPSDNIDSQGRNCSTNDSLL
Sequence of Adrenergic β1 (P08588 whole entry): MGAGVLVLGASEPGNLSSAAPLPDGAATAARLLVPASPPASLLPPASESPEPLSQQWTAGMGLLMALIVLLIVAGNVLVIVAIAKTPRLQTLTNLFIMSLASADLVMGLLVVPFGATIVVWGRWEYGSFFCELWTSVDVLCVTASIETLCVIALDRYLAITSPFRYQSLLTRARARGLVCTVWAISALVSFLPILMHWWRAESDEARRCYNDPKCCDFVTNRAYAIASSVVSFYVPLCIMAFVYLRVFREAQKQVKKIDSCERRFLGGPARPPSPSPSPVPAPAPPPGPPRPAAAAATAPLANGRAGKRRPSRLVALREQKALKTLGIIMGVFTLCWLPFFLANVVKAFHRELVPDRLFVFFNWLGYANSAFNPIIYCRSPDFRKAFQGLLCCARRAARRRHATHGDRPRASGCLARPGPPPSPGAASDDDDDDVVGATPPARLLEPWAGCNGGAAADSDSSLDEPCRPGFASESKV
Sequence of Adrenergic β3 (P13945 whole entry): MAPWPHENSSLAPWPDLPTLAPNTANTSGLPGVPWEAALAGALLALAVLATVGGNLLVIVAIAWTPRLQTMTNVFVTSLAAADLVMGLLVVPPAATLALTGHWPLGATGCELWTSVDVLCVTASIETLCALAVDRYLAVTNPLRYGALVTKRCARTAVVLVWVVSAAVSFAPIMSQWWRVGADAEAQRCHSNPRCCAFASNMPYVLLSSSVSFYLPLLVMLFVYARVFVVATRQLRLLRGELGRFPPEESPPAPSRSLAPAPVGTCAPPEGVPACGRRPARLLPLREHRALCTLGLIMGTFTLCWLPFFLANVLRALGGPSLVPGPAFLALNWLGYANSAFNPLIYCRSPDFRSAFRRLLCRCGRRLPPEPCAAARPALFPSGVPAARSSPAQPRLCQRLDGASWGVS
Sequence of Bombesin BB1 (P28336 whole entry): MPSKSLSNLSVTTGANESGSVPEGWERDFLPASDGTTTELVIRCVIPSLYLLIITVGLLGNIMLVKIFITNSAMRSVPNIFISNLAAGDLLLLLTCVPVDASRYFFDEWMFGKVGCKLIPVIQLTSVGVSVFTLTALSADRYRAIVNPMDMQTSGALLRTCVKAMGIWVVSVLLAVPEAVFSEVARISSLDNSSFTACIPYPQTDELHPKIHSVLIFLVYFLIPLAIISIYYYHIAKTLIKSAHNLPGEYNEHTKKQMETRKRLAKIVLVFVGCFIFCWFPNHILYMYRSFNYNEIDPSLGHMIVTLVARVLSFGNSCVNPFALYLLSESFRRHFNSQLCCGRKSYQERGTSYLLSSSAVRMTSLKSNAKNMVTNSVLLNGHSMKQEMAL

Neuromedin B
Historical nH (reference compound) (Bombesin BB1): 0.9

CN[C@@H](C)[C@H](O)c1ccccc1 [ephedrine]
adrenergic β-2 response (agonist/antagonist) (Adrenergic β2): inhibits; also recorded: antagonist
adrenergic β-1 response (agonist/antagonist) (Adrenergic β1): inhibits; also recorded: antagonist
adrenergic β-3 response (agonist/antagonist) (Adrenergic β3): activating; also recorded: agonist

CCCC[C@H](NC(=O)[C@H](Cc1ccccc1)NC(=O)[C@H](Cc1c[nH]cn1)NC(=O)CCNC(=O)[C@@H](NC(=O)[C@H](C)NC(=O)[C@H](Cc1c[nH]c2ccccc12)NC(=O)[C@H](CCC(N)=O)NC(=O)[C@H](N)Cc1ccccc1)C(C)C)C(N)=O [(D-Phe^6, β-Ala^11, Phe^13, Nle^14)-BN (6-14)] (H-[dF]QWAV[βAla]HF[Nle]-NH2; N-terminus and C-terminus assumed)
IC50 (Bombesin BB3 [1]): 5.99 nM
Historical nH (reference compound) (Bombesin BB3 [2]; Hill coefficient): 0.9
IC50 (Bombesin BB3 [2]; read-out: Historical IC50 (reference compound)): 6.1 nM
Ki (Bombesin BB3 [2]; read-out: Historical Ki (reference compound)): 4.1 nM

Somatostatin-14
Historical nH (reference compound; no head) (Somatostatin sst5): 0.8
